Where only a bound is given, the exact number is not on record here.

In general, AUC(0-t) refers to the area under the concentration-time curve up to a stated or last time point.

The subject of series [1] is HCT116. The experiment in a line: Methylene Blue Cell Growth Inhibition Assay, HCT116. It is filed as cell-based. The note with it: Homo sapiens, HCT-116, 72 h, read-out: MEB HCT116 IC50. As to the method: (§1) Normal human foreskin fibroblasts (HFF), human colon (HCT116, RKO), lung (H460, A549) and breast (MCF7) tumor cell lines were cultured in high glucose DMEM (Life Technologies) containing 10% fetal bovine serum (FBS) at 37° C. in a humidified 5% CO2, 95% air incubator. Cells were harvested using trypsin/EDTA, counted using a haemocytometer, and plated in 100 μL of culture media per well, at the following densities, in a 96-well tissue culture plate (Falcon 3075): HFF 5,000 cells/well, HCT116 3,000 cells/well, RKO 2,500 cells/well, H460 2,500 cells/well, A549 5,000 cells/well, MCF7 4,000 cells/well. The next day, compounds were diluted in low glucose DMEM containing 100 μg/mL gentamicin, at twice the final required concentration, from 10 mM stock solutions in DMSO. 100 μL/well of these dilutions were added to the 100 μL of media currently in the assay plates. Medium containing 0.6% DMSO was added to control wells. The final concentration of DMSO in all wells was 0.3%. Cells were incubated at 37° C., 5% CO2 for 72 h. Medium was removed by aspiration. Cell biomass was estimated by staining cells with 80 μL per well methylene blue (Sigma M9140, 0.5% in 50:50 ethanol:water), and incubation at room temperature for 30-60 min. Stain was removed by aspiration and the plates rinsed by immersion in water, then air-dried. To release stain from the cells, 100 μL of solubilization solution was added (1% N-lauroyl sarcosine, Sodium salt, Sigma L5125, in PBS), and plates were shaken gently for about 30 min. Optical density at 620 nm was measured on a microplate reader. Percent inhibition of cell growth was calculated relative to vehicle treated control wells. Concentration of compound that inhibits 50% of cell growth (IC50) was interpolated using nonlinear regression (Levenberg-Marquardt) and the equation, y=Vmax*(1−(x/(K+x)))+Y2, where “K” was equal to the IC50.

Series [2] relates to H460. The experiment in a line: Methylene Blue Cell Growth Inhibition Assay, H460. The note with it: Homo sapiens, NCI-H460, 72 h, read-out: MEB H460 IC50. The series is classed as cell-based. The procedure: as §1
Series [3] relates to A549. The experiment in a line: Methylene Blue Cell Growth Inhibition Assay, A549. The series is classed as cell-based. The note with it: Homo sapiens, 72 h, read-out: MEB A549 IC50. As to the method:
as §1

Series [4] concerns RKO. The experiment in a line: Methylene Blue Cell Growth Inhibition Assay, RKO. The note with it: Homo sapiens, 72 h, read-out: MEB RKO IC50. The series is classed as cell-based. The procedure: as §1
The test system of series [5] is MX-1. The experiment in a line: Methylene Blue Cell Growth Inhibition Assay, MX-1. The note with it: Homo sapiens, MX1, 72 h, read-out: MEB MX-1 IC50. The series is classed as cell-based.
The subject of series [6] is Normal human foreskin fibroblasts (HFF). Kind of series: Methylene Blue Cell Growth Inhibition Assay, HFF. It is filed as cell-based. The note with it: Fibroblast, 72 h, read-out: MEB HFF IC50. As to the method:
as §1

In series [7] the test system is HCT-116. Kind of series: Cell-Titer Glo Cell Growth Inhibition Assay, HCT116. The series is classed as cell-based. The conditions noted are these: Homo sapiens, CellTiter-Glo, 72 h, read-out: CTG HCT116 IC50. The procedure:
A549-L (human lung), BT474 (human breast), Colo 205 (human colon), H1299 (human lung), Hela (human cervix), HCT-116 (human colon), HN5 (human head and neck), HT29 (human colon), LNCap (human prostate), MCF7 (human breast), MDA-MB468 (human breast), MX-1 (human breast), RPMI 8226 (human peripheral blood), SKOV3 (human ovary) and P388 (murine leukemia) cell lines were cultured in RPMI1640 containing 10% fetal bovine serum at 37° C. in a 5% CO2 incubator. Cell lines were split into T75 flasks (Falcon #353136) two to three days prior to assay set up at density which yields approximately 70-80% confluency at time of harvest for assay. Cells were harvested using 0.25% trypsin with EDTA (Glibco/Invitrogen #25200-056), Cell counts were performed on cell suspensions using Trypan Blue exclusion staining, cells were then plated in 105 uL of culture media per well at the following densities in 96 well Costar #3916 black flat bottom plates: All human cell lines were plated at 500 cells/well. P388 were plated at 250 cells/well. All plates were placed at 5% CO2 37° C. overnight and then test compounds were added the following day. One plate of each cell type is treated with CellTiter-Glo (Promega #G7573) for a day 0 proliferation measurement and read as described below. The test compounds are prepared in clear U bottom polypropylene 96 well plates (Falcon #35-1190 with consecutive two fold dilutions. 9 uL of these dilutions was added into each well of the cell plates. The final concentration of DMSO in all wells is 0.15%. Cells were incubated at 37° C., 5% CO2 for 72 h. Following 72 h of incubation with compounds each plate was developed and read. CellTiter-Glo reagent was added to assay plates using a volume equivalent to the cell culture volume in the wells. Plates were shaken for approximately two minutes and incubated at room temperature for approximately 15 min and the chemiluminescent signal is read on the Victor V or Envison 2100 reader. […] Concentration of compound that inhibited 50% of cell growth (IC50) was analysis by 4 or 6 parameter fit of data using XLfit, value of no cell addition was subtracted from all samples for background.
A general note: ATP-based viability assays read luminescence as a measure of living cells.

Series [8] is described as follows: Intravenous pharmacokinetics in CD-1 mouse. It is filed as in vivo. The conditions noted are these: plasma, iv bolus, male CD-1 mouse, dose 1.9-7.4 mg/kg per compound (Table 3); for clearance: read-out: Plasma CL. The procedure: Preliminary investigation of the intravenous pharmacokinetics of compounds of invention were carried out in fed conscious CD-1 mouse. Compounds were formulated as 1-10 mg/kg, 5 mL/kg, 1-2 mg/mL solution (Table 3). Twenty one male mice (n=3 mice per time point) (˜30 g) received dose solution by bolus injection in the tail vein. The formulation for iv were either 20% beta cyclodextrin in saline pH 3.5-6 or PEG400:ethanol:saline (50:15:35 v/v). Blood samples (˜0.4 mL) were collected terminally by cardiac puncture following anesthetization in a CO2 chamber at 2, 15, 30, 60 min, 2, 4, and 6 h following iv administration. Blood samples were collected into tubes containing heparin and placed on crushed ice promptly after collection. Plasma was collected by centrifugation, frozen and stored at about −80° C. prior to analysis. Blood or plasma concentrations were determined by LC/MS/MS equipped with an electrospray ion source and using calibration curves for the appropriate matrix. The lower level of quantitation (LLQ) was 10 ng/mL. Blood or plasma concentration-time data were analyzed by non-compartmental methods using the computer program WinNonlin Professional (version 4.1). Area under the blood or plasma concentration-time curve (AUC) was calculated using the linear trapezoidal rule for each incremental trapezoid up to Cmax, and the log trapezoidal rule for each trapezoid thereafter. The terminal elimination rate constant (λz) was derived from the log-linear disposition phase of the concentration-time curve using least-squares regression analysis with visual inspection of the data to determine the appropriate number of terminal data points for regression analysis.
Following iv administration, the total body clearance (CL) was estimated. CL was calculated by dividing the dose by AUC(0−t). The clearance values were assigned as follows. Low <30 mL/min/kg, moderate 30-70 mL/min/kg, high >70 mL/min/kg. The assignment was based on hepatic blood flow i.e. hepatic blood flow of 0-30% low, 30-70% moderate and 70-100% high. The hepatic blood flow in mouse is ˜100 mL/min/kg.

The test system of series [9] is MCF7. Kind of series: Methylene Blue Cell Growth Inhibition Assay, MCF7. It is filed as cell-based. The conditions noted are these: Homo sapiens, 72 h, read-out: MEB MCF7 IC50. As to the method:
as §1

Series [10] deals with T1, PLK1 kinase domain (Homo sapiens, UniProt P53350).
T1 construct: made in house; host or cells: baculovirus infected T. ni cells
T1 sequence (P53350 21-346): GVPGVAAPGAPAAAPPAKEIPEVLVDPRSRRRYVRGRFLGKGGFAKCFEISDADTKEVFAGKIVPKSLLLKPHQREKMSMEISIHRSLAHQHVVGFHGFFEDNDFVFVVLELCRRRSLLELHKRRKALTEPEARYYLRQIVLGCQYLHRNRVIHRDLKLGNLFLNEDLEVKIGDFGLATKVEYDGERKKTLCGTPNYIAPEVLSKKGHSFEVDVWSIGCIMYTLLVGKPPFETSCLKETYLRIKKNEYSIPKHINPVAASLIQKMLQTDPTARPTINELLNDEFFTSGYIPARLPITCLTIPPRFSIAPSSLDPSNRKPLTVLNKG
The experiment in a line: Assay for Inhibition of PLK1 (33P SPA kinase assay). The series is classed as biochemical. The conditions noted are these: 2 nM PLK1 kinase domain, 1 μM ATP; read-out: PLK1 pIC50 (converted). The procedure:
All procedures were performed at 4° C. Cells were lysed in 50 mM HEPES, 200 mM NaCl, 50 mM imidazole, 5% glycerol; pH 7.5. The homogenate was centrifuged at 14K rpm in a SLA-1500 rotor for 1 h and the supernatant filtered through a 1.2 micron filter. The supernatant was loaded onto a Nickel chelating Sepharose (Amersham Pharmacia) column and washed with lysis buffer. Protein was eluted using 20%, 30% and 100% buffer B steps where buffer B is 50 mM HEPES, 200 mM NaCl, 300 mM imidazole, 5% glycerol; pH 7.5. Fractions containing PLK were determined by SDS-PAGE. Fractions containing PLK were diluted five-fold with 50 mM HEPES, 1 mM DTT, 5% glycerol; pH 7.5, then loaded on an SP Sepharose (Amersham Pharmacia) column. After washing the column with 50 mM HEPES, 1 mM DTT, 5% glycerol; pH 7.5, PLK was step eluted with 50 mM HEPES, 1 mM DTT, 500 mM NaCl; 5% glycerol; pH 7.5. PLK was concentrated using a 10 kDa molecular weight cutoff membrane and then loaded onto a Superdex 200 gel filtration (Amersham Pharmacia) column equilibrated in 25 mM HEPES, 1 mM DTT, 500 mM NaCl, 5% glycerol; pH 7.5. Fractions containing PLK were determined by SDS-PAGE. PLK was pooled, aliquoted and stored at −80° C. Samples were quality controlled using mass spectrometry, N-terminal sequencing and amino acid analysis.
B. Enzyme activity +/− inhibitors was determined as follows:
All measurements were obtained under conditions where signal production increased linearly with time and enzyme. Test compounds were added to white 384-well assay plates (0.1 μL for 10 μL and some 20 μl assays, 1 μL for some 20 μL assays) at variable known concentrations in 100% DMSO. DMSO (1-5% final, as appropriate) and EDTA (65 mM in reaction) were used as controls.
Reaction Mix (10 or 20 μL) was quickly added to each well immediately following addition of enzyme via automated liquid handlers and incubated 1-1.5 h at 22° C. The 20 μL enzymatic reactions were stopped with 50 μL of stop mix (50 mM EDTA, 4.0 mg/mL Streptavidin SPA beads in Standard Dulbecco's PBS (without Mg^2+ and Ca^2+), 50 μM ATP) per well. The 10 μL reactions were stopped with 10 μL of stop mix (50 mM EDTA, 3.0 mg/mL Streptavidin-coupled SPA Imaging Beads (“LeadSeeker”) in Standard Dulbecco's PBS (without Mg^2+ and Ca^2+), 50 μM ATP) per well. Plates were sealed with clear plastic seals, spun at 500×g for 1 min or settled overnight, and counted in Packard TopCount for 30 seconds/well (regular SPA) or imaged using a Viewlux imager (LeadSeeker SPA). Signal above background (EDTA controls) was converted to percent inhibition relative to that obtained in control (DMSO-only) wells.

With `C[C@@H](Oc1cc(-n2cnc3cc(-c4ccnc(N)c4)ccc32)sc1C(N)=O)c1ccccc1C(F)(F)F` [Example 4, 5-[5-(2-Amino-4-pyridinyl)-1H-benzimidazol-1-yl]-3-({(1R)-1-[2-(trifluoromethyl)phenyl]ethyl}oxy)-2-thiophenecarboxamide], the IC50 was less than 100 nM in series [1]; less than 100 nM in series [2]; less than 100 nM in [3]; less than 100 nM in [4]; less than 100 nM in [5]; 100 to 1000 nM in series [6]. In addition, the IC50 in series [7] is less than 100 nM. This compound had an area under the curve AUC(0-t) in [8] of 1170 ng·h/mL. For the same compound, the clearance in series [8] came out at 37.9 mL/min/kg.
With `COc1cc2ncn(-c3cc(OC(C)c4ccccc4Cl)c(C(N)=O)s3)c2cc1OC` (stereo not drawn) [PU4870 Ex 126, reference compound], the IC50 in [1] is less than 100 nM; in [2] it was less than 100 nM; in series [9], more than 1000 nM; in series [3] it was less than 100 nM; in series [4] it was less than 100 nM; in series [6], 100 to 1000 nM.
On to `COc1cc2ncn(-c3cc(OC(C)c4ccccc4C(F)(F)F)c(C(N)=O)s3)c2cc1OC` (stereo not drawn) [PU4870 Ex 127, reference compound], for which the IC50 in [10] was less than 10 nM; in series [2] it was less than 100 nM; in series [9], 100 to 1000 nM; in series [3], less than 100 nM; in series [4], less than 100 nM; in series [6], more than 1000 nM. Besides, the IC50 in [7] fell in the range of 100 to 1000 nM.
Consider `COc1cc2c(cc1OCCCN1CCCC1=O)ncn2-c1cc(OCc2ccccc2C(F)(F)F)c(C(N)=O)s1` [PU4870 Ex 134, reference compound], for which the IC50 in [10] is 10 to 1000 nM; in series [1] it was more than 1000 nM; in series [2], more than 1000 nM; in series [9], more than 1000 nM; in series [3], more than 1000 nM; in series [4], more than 1000 nM. The IC50 in series [6] and in series [7] was more than 1000 nM in each case.
Take `NC(=O)c1sc(-n2cnc3cc(C(=O)NCCN4CCNC4=O)ccc32)cc1OCc1ccccc1C(F)(F)F` [PU4870 Ex 156, reference compound]: the IC50 is 10 to 1000 nM in series [10]; more than 1000 nM in series [1]; more than 1000 nM in series [2]; more than 1000 nM in series [9]; more than 1000 nM in [4]; more than 1000 nM in [6].
Take `C[C@@H](Oc1cc(-n2cnc3cc(-c4cn[nH]c4)ccc32)sc1C(N)=O)c1ccccc1C(F)(F)F` [Example 5, 5-[5-(1H-Pyrazol-4-yl)-1H-benzimidazol-1-yl]-3-({(1R)-1-[2-(trifluoromethyl)phenyl]ethyl}oxy)-2-thiophenecarboxamide]: the IC50 in series [1] was less than 100 nM; in series [2], less than 100 nM; in [3], less than 100 nM; in [4], less than 100 nM; in series [5], less than 100 nM; in series [6], 100 to 1000 nM. In [7], the IC50 is less than 100 nM. This compound yielded an area under the curve AUC(0-t) in [8] of 1370 ng·h/mL. The clearance in series [8] was found to be 23.1 mL/min/kg.

The record behind these values is patent US20080214563A1, “Benzimidazole Thiophene Compounds As Plk Modulators” (priority 2005, published 2008).
